The results in this text go back to patent US7479493B2, “Substituted benzyl amine compounds” (Janssen Pharmaceutica N.V., priority 2006, dated 2009).

The target of one assay is cloned human H3 receptor (Homo sapiens, UniProt Q9Y5N1). In words: H3 Receptor Binding. To be noted: cloned human H3 receptor stably expressed in SK-N-MC cells.
The target in another assay is T1, human SERT (Homo sapiens, UniProt P31645).
T1 construct: expressed in transfected cells; host or cells: HEK293 membranes
In words: Human SERT (3H-citalopram binding, HEK293 membranes). As to conditions: HEK293 membranes expressing the human SERT, rt 1 h. The method, then: Homogenized HEK293 (Human Embryonic Kidney) membranes expressing the human SERT were incubated with ^3H-citalopram (SERT) at rt for 1 h in 50 mM Tris, 120 mM NaCl, 5 mM KCl (pH 7.4). Nonspecific binding was determined in the presence of 10 μM fluoxetine for the SERT. The membranes were washed and the radioactivity was counted as above.

The next assay addresses Rat SERT (Rattus norvegicus, UniProt P31652). In words: biochemical.
The next assay has as its target human H3 receptor (Homo sapiens, UniProt Q9Y5N1). In words: Cyclic AMP Accumulation (reporter gene, SK-N-MC cells).

Chain of cloned human H3 receptor (Q9Y5N1 whole entry): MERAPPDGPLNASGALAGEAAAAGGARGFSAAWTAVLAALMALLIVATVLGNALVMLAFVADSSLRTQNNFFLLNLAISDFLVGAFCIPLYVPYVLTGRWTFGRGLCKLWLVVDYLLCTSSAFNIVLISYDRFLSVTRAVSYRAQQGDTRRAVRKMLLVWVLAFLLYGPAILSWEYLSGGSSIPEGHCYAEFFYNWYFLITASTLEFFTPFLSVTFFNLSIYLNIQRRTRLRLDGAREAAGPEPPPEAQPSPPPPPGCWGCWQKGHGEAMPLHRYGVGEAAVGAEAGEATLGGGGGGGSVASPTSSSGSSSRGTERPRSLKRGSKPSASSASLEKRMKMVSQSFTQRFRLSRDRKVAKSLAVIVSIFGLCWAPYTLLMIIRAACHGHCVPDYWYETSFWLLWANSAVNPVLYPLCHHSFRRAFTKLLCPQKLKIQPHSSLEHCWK
Chain of human H3 receptor (Q9Y5N1 whole entry): as above
Chain of Rat SERT (P31652 whole entry): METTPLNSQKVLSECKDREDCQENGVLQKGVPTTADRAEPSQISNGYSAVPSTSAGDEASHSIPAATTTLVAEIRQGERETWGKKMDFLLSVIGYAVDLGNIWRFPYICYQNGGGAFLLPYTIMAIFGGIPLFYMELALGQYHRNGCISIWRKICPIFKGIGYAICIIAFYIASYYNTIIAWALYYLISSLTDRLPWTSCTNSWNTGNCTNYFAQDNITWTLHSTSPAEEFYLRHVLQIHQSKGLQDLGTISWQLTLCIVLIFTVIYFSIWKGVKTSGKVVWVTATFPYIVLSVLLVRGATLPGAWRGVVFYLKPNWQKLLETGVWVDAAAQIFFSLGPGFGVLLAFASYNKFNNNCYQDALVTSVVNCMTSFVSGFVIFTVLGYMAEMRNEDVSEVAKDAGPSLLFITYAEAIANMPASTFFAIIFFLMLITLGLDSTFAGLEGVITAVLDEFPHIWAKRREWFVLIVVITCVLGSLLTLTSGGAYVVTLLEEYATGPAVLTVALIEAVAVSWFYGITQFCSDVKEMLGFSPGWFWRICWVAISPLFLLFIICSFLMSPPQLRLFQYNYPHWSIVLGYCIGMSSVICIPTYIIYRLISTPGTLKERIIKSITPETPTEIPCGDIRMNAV
T1 sequence (P31645 whole entry): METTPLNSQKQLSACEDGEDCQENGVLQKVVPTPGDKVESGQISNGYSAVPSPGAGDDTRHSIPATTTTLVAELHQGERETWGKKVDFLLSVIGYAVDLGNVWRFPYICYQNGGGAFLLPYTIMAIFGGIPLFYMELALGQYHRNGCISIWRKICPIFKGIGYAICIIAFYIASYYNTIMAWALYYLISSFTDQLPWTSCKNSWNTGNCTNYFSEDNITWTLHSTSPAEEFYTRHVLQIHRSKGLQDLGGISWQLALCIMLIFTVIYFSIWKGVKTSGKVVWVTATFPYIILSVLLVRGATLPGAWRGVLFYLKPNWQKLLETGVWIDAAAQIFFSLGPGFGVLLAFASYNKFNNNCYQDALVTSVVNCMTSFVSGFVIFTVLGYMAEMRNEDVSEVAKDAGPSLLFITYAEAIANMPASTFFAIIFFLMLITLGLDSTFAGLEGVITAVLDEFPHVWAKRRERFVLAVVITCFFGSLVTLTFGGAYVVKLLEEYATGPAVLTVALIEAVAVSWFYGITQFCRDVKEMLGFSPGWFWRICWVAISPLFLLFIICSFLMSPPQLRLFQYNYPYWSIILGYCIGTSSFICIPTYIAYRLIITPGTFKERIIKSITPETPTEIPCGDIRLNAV
Method for Rat SERT: The supernatant was removed and re-centrifuged at 15,000 rpm for 30 min. […] Membranes were incubated with 0.6 nM [^3H]-Citalopram plus/minus test compounds for 60 min at 25° C. and harvested by rapid filtration over GF/C glass fiber filters (pretreated with 0.3% polyethylenimine) followed by four washes with ice-cold buffer. Nonspecific binding was defined in the presence of 100 μM fluoxetine.

As usually defined, the Ki is a dissociation constant, usually derived from enzyme kinetics or from competition with a known ligand. A lower Ki goes with a stronger hold on the target. Take `CNCc1cc(C(=O)N2CCN(C(C)C)CC2)ccc1Oc1cccnc1` [Example 9, (4-Isopropyl-piperazin-1-yl)-[3-methylaminomethyl-4-(pyridin-3-yloxy)-phenyl]-methanone]: the figures for the Ki at cloned human H3 receptor, at human SERT and on Rat SERT were 1 nM, 420 nM and 160 nM, respectively.

With `CC(C)N1CCN(C(=O)c2ccc(CNC3CC3)c(Oc3cccnc3)c2)CC1` [Example 30, [4-Cyclopropylaminomethyl-3-(pyridin-3-yloxy)-phenyl]-(4-isopropyl-piperazin-1-yl)-methanone], the figures for the Ki at cloned human H3 receptor and at Rat SERT were 3 nM and 4000 nM, respectively. In addition, the Kb at human H3 receptor was 0.794 nM.

For `O=C(c1ccc(CNC2CC2)c(Oc2cccnc2)c1)N1CCN(C2CC2)CC1` [Example 31, [4-Cyclopropylaminomethyl-3-(pyridin-3-yloxy)-phenyl]-(4-cyclopropyl-piperazin-1-yl)-methanone], the Ki on cloned human H3 receptor stood at 10 nM; at Rat SERT it was 1000 nM. This compound also showed a Kb on human H3 receptor of 1.58 nM.

At cloned human H3 receptor, `CC(C)N1CCN(C(=O)c2ccc(CN3CCCCC3)c(Oc3cccnc3)c2)CC1` [Example 33, (4-Isopropyl-piperazin-1-yl)-[4-piperidin-1-ylmethyl-3-(pyridin-3-yloxy)-phenyl]-methanone] registered a Ki of 2 nM. This compound showed a Kb on human H3 receptor of 0.316 nM.

In the case of `O=C(c1ccc(CN2CCCCC2)c(Oc2cccnc2)c1)N1CCN(C2CC2)CC1` [Example 34, (4-Cyclopropyl-piperazin-1-yl)-[4-piperidin-1-ylmethyl-3-(pyridin-3-yloxy)-phenyl]-methanone], the affinity on cloned human H3 receptor corresponds to a Ki of 3 nM. Also, the Kb at human H3 receptor was 1.26 nM.

Turning to `CN(C)C1CCN(C(=O)c2ccc(CN3CCCCC3)c(Oc3cccnc3)c2)C1` (stereo not shown) [Example 35, (3-Dimethylamino-pyrrolidin-1-yl)-[4-piperidin-1-ylmethyl-3-(pyridin-3-yloxy)-phenyl]-methanone], the Ki on cloned human H3 receptor was 7 nM. The Kb at human H3 receptor was 2.51 nM.

As for `CNCc1ccc(C(=O)N2CCN(C(C)C)CC2)cc1Oc1ccc(Cl)cc1` [Example 36, [3-(4-Chloro-phenoxy)-4-methylaminomethyl-phenyl]-(4-isopropyl-piperazin-1-yl)-methanone], the Ki at cloned human H3 receptor came out at 4 nM; on Rat SERT, 28 nM. The compound further had a Kb at human H3 receptor of 6.31 nM.

For `CNCc1cc(N2CCC(N3CCOCC3)CC2)ccc1Oc1ccc(SC)cc1` [Example 51, Methyl-[2-(4-methylsulfanyl-phenoxy)-5-(4-morpholin-4-yl-piperidin-1-yl)-benzyl]-amine], the Ki on cloned human H3 receptor stood at 28 nM; on Rat SERT, 2 nM.

For `CNCc1cc(N2CCCN(C(C)C)CC2)ccc1Oc1ccc(SC)cc1` [Example 52, [5-(4-Isopropyl-[1,4]diazepan-1-yl)-2-(4-methylsulfanyl-phenoxy)-benzyl]-methyl-amine], the Ki on cloned human H3 receptor turned out to be 8 nM; on Rat SERT it was 1 nM.

Consider `CNCc1cc(N2CCCN(C3CC3)CC2)ccc1Oc1ccc(SC)cc1` [Example 53, [5-(4-Cyclopropyl-[1,4]diazepan-1-yl)-2-(4-methylsulfanyl-phenoxy)-benzyl]-methyl-amine], for which the Ki at cloned human H3 receptor was 28 nM; on Rat SERT it was 6 nM.

`CNCc1cc(N2CCN(C(C)C)CCC2=O)ccc1Oc1ccc(SC)cc1` [Example 54, 1-Isopropyl-4-[3-methylaminomethyl-4-(4-methylsulfanyl-phenoxy)-phenyl]-[1,4]diazepan-5-one]: the Ki stood at 3 nM at cloned human H3 receptor and 0.5 nM on Rat SERT. In addition, at human H3 receptor, the Kb was 2 nM.

As to `CNCc1cc(N2CCCN(C(C)C)CC2)ccc1Oc1ccc(Cl)c(Cl)c1` [Example 55, [2-(3,4-Dichloro-phenoxy)-5-(4-isopropyl-[1,4]diazepan-1-yl)-benzyl]-methyl-amine], the Ki worked out at 27 nM at cloned human H3 receptor and 10 nM at Rat SERT.

As to `CNCc1cc(N2CCCN(C3CC3)CC2)ccc1Oc1ccc(Cl)c(Cl)c1` [Example 56, [5-(4-Cyclopropyl-[1,4]diazepan-1-yl)-2-(3,4-dichloro-phenoxy)-benzyl]-methyl-amine], the Ki worked out at 25 nM at cloned human H3 receptor and 16 nM at Rat SERT.

Turning to `CNCc1cc(N2CCN(C3CC3)CCC2=O)ccc1Oc1ccc(SC)cc1` [Example 57, 1-Cyclopropyl-4-[3-methylaminomethyl-4-(4-methylsulfanyl-phenoxy)-phenyl]-[1,4]diazepan-5-one], the Ki at cloned human H3 receptor was 37 nM; on Rat SERT, 4 nM.

For the compound `CNCc1cc(N2CC[C@H](N(C)C)C2)ccc1Oc1ccc(SC)cc1` [Example 58, (S)-Dimethyl-{1-[3-methylaminomethyl-4-(4-methylsulfanyl-phenoxy)-phenyl]-pyrrolidin-3-yl}-amine], the Ki on cloned human H3 receptor was determined as 300 nM; on Rat SERT it was 6 nM.

As to `CNCc1cc(C(=O)N2CCN(C3CC3)CC2)ccc1OCc1ccc(Cl)c(Cl)c1` [Example 59, (4-Cyclopropyl-piperazin-1-yl)-[4-(3,4-dichloro-benzyloxy)-3-methylaminomethyl-phenyl]-methanone], the figures for the Ki on cloned human H3 receptor and at Rat SERT were 70 nM and 4 nM, respectively.

With `CSc1ccc(Oc2ccc(CN3CCN(C(C)C)CC3)cc2CNC2CC2)cc1` [Example 60, Cyclopropyl-[5-(4-isopropyl-piperazin-1-ylmethyl)-2-(4-methylsulfanyl-phenoxy)-benzyl]-amine], the Ki on cloned human H3 receptor was determined as 2 nM; at Rat SERT it was 3 nM.

`CNCc1cc(CN2CCN(C(C)C)CC2)ccc1Oc1ccc(SC)cc1` [Example 61, [5-(4-Isopropyl-piperazin-1-ylmethyl)-2-(4-methylsulfanyl-phenoxy)-benzyl]-methyl-amine]: the results for the inhibition constant (Ki) at cloned human H3 receptor and on Rat SERT were 2 nM and 0.8 nM, respectively.

`CSc1ccc(Oc2ccc(CN3CCN(C(C)C)CC3)cc2CN(C)C)cc1` [Example 62, [5-(4-Isopropyl-piperazin-1-ylmethyl)-2-(4-methylsulfanyl-phenoxy)-benzyl]-dimethyl-amine]: the Ki was 21 nM at cloned human H3 receptor and 1 nM at Rat SERT.

On to `CCNCc1cc(CN2CCN(C(C)C)CC2)ccc1Oc1ccc(SC)cc1` [Example 63, Ethyl-[5-(4-isopropyl-piperazin-1-ylmethyl)-2-(4-methylsulfanyl-phenoxy)-benzyl]-amine], for which the figures for the Ki at cloned human H3 receptor and at Rat SERT were 0.9 nM and 6 nM, respectively.

For `CSc1ccc(Oc2ccc(CN3CCN(C(C)C)CC3)cc2CNC(C)C)cc1` [Example 64, Isopropyl-[5-(4-isopropyl-piperazin-1-ylmethyl)-2-(4-methylsulfanyl-phenoxy)-benzyl]-amine], the inhibition constant Ki came to 0.5 nM on cloned human H3 receptor and 7 nM at Rat SERT.

With `CSc1ccc(Oc2ccc(CN3CCN(C(C)C)CC3)cc2CN)cc1` [Example 65, 5-(4-Isopropyl-piperazin-1-ylmethyl)-2-(4-methylsulfanyl-phenoxy)-benzylamine], the values for the Ki at cloned human H3 receptor and at Rat SERT were 4 nM and 18 nM, respectively.

For `CNCc1cc(CN2CCN(C(C)C)C(=O)C2)ccc1Oc1ccc(Cl)c(Cl)c1` [Example 66, 4-[4-(3,4-Dichloro-phenoxy)-3-methylaminomethyl-benzyl]-1-isopropyl-piperazin-2-one], the Ki is 2500 nM on cloned human H3 receptor and 6 nM at Rat SERT.

For `CNCc1cc(CN2CCN(C(C)C)CC2=O)ccc1Oc1ccc(Cl)c(Cl)c1` [Example 67, 1-[4-(3,4-Dichloro-phenoxy)-3-methylaminomethyl-benzyl]-4-isopropyl-piperazin-2-one], the values for the Ki at cloned human H3 receptor and at Rat SERT were 6 nM and 4 nM, respectively.

For `CNCc1cc(CN2CCC(=O)N(C(C)C)CC2)ccc1Oc1ccc(Cl)c(Cl)c1` [Example 68, 1-[4-(3,4-Dichloro-phenoxy)-3-methylaminomethyl-benzyl]-4-isopropyl-[1,4]diazepan-5-one], the Ki at cloned human H3 receptor worked out at 6300 nM; on Rat SERT it was 7 nM.

On to `CNCc1cc(CN2CCN(C(C)C)CCC2=O)ccc1Oc1ccc(Cl)c(Cl)c1` [Example 69, 4-[4-(3,4-Dichloro-phenoxy)-3-methylaminomethyl-benzyl]-1-isopropyl-[1,4]diazepan-5-one], for which the Ki turned out to be 110 nM on cloned human H3 receptor and 4 nM on Rat SERT.

As to `CNCc1cc(CN2CCN(C3CCC3)CCC2=O)ccc1Oc1ccc(Cl)c(Cl)c1` [Example 70, 1-Cyclobutyl-4-[4-(3,4-dichloro-phenoxy)-3-methylaminomethyl-benzyl]-[1,4]diazepan-5-one], the results for the Ki on cloned human H3 receptor and at Rat SERT were 19 nM and 5 nM, respectively.

On to `CNCc1cc(C(=O)NCCN2CCCC2)ccc1Oc1cccc(Cl)c1` [Example 71, 4-(3-Chloro-phenoxy)-3-methylaminomethyl-N-(2-pyrrolidin-1-yl-ethyl)-benzamide], for which the results for the Ki at cloned human H3 receptor and on Rat SERT were 6 nM and 2 nM, respectively.

Regarding `CNCc1cc(C(=O)N2CCN(C3CCC3)CC2)ccc1Oc1cccc(Cl)c1` [Example 72, [4-(3-Chloro-phenoxy)-3-methylaminomethyl-phenyl]-(4-cyclobutyl-piperazin-1-yl)-methanone], the values for the Ki at cloned human H3 receptor and at Rat SERT were 4 nM and 65 nM, respectively.

For `Cc1ccc(Oc2cc(C(=O)N3CCN(C4CC4)CC3)ccc2CN(C)C)c(C)n1` [Example 80, (4-Cyclopropyl-piperazin-1-yl)-[4-dimethylaminomethyl-3-(2,6-dimethyl-pyridin-3-yloxy)-phenyl]-methanone], the results for the Ki on cloned human H3 receptor and at Rat SERT were 140 nM and 500 nM, respectively.

Consider `CN(C)Cc1ccc(C(=O)N2CCN(C3CC3)CC2)cc1OCc1ccccc1` [Example 81, (3-Benzyloxy-4-dimethylaminomethyl-phenyl)-(4-cyclopropyl-piperazin-1-yl)-methanone], for which the inhibition constant Ki on cloned human H3 receptor was 67 nM; at Rat SERT it was 8000 nM.
